Assay results taken from patent US20230234993A1, “COMPOSITION FOR PREVENTING OR TREATING NEUROLOGICAL DISEASES RELATED TO COPPER METABOLISM, COMPRISING MULTI-COPPER OXIDASE PEPTIDE” (NATIONAL MARINE BIODIVERSITY INSTITUTE OF KOREA, priority 2020, published 2023).
Where no end group is shown, it is not given here.

Assays:
Type in all cases: in vivo
[1] = system: myelinated cells in the nervous system of zebrafish embryos under copper overexposure; assay: Myelination defect of cranial ganglia in copper overexposure nervous system model (fluorescence microscopy); details: 6 days of drug treatment; for subjects expressing the fluorescent protein (cranial ganglia): with copper, concentration not given
Protocol: The development process of fertilized eggs obtained by mating male and female wild-type zebrafish was safely maintained in an incubator (28.5° C.). At 24 hours after fertilization, normally grown embryos were dispensed into a 24-well plate by 10 subjects and maintained under copper overexposure conditions. To examine the developmental defects of myelinated cells in the nervous system due to copper overexposure and a therapeutic effect of a multi-copper oxidase peptide, CP002S (10 μM) was treated. After 6 days of drug treatment, the subjects were anesthetized with tricaine and placed in 3% methylcellulose. The myelination defect of cranial ganglia (Cg) was observed through fluorescence microscopy, and fluorescent proteins were divided into a normal and a defect according to an expression level. A negative control group in the experiment was a 0.1% DMSO treated group (normal group) and a copper overexposed group, and a positive control group was a DPA (penicillamine/D-Penicillamine) treated group; and a TETA (trientine/Trientine) treated group. The results observed with a fluorescence microscope were illustrated in FIG. 10A, and the results of analyzing the therapeutic effect based on the fluorescence microscope observation results were illustrated in FIG. 10B.

[2] = system: zebrafish embryos under copper overexposure conditions; assay: Cardiotoxicity (heart rate) in copper-overexposed nervous system model
Protocol: The development process of fertilized eggs obtained by mating male and female wild-type zebrafish was safely maintained in an incubator (28.5° C.). At 24 hours after fertilization, normally grown embryos were dispensed into a 24-well plate by 20 subjects and maintained under copper overexposure conditions. On 4.5 days after treatment (5.5 days after fertilization), 7 subjects per group were randomly selected, 3% methylcellulose was put in a hole slide glass, and the heart of each subject was located on the hole slide glass to be observed with the naked eye through a stereoscopic microscope lens and observed under a microscope. The heart rate was measured together with the movement of the atria and the ventricles for 20 seconds for each subject in each group to be converted to a heart rate per minute and the average heart rate for each group was compared through a PRISM (Bonfferroni's Multiple Comparison Test, One-way ANOVA) program. In addition, the heart rate inhibition rate was calculated as follows using an average heart rate of the control group. Heart rate inhibition rate=[(average heart rate by group−average heart rate in control group)×100]/average heart rate in control group […] The results of measuring the heart rate in the copper overexposed model animal were illustrated in FIG. 11A, and the heart rate inhibition rate calculated based on the heart rate measurement results was illustrated in FIG. 11B.

[3] = system: zebrafish embryos exposed to copper; assay: Hatching rate under copper overexposure conditions
Protocol: Through hatching rate examination, the activities of CP002 and CP002S were analyzed in zebrafish embryos exposed to copper. Specifically, the development process of fertilized eggs obtained by mating male and female wild-type zebrafish was safely maintained in an incubator. At 24 hours after fertilization, normally grown embryos were dispensed into a 24-well plate by 13 subjects and maintained under copper overexposure conditions. The dispensed subjects were treated with CP002 (5, 10 μM), CP002S (5, 10 μM), DPA (5, 10 μM), or TETA (5, 10 μM). From 48 hours to 52, 56, 60, 72, and 80 hours after fertilization (24 hours after treatment) when hatching started, the number of hatched subjects in each group was examined. A negative control group in the experiment was a 0.1% DMSO treated group (normal group) and a copper overexposed group (4 μM CuSO4), and a positive control group was a CP002 treated group; a DPA (penicillamine/D-Penicillamine) treated group; and a TETA (trientine/Trientine) treated group. The DPA and TETA were drugs that have been used as therapeutic agents for Wilson's disease and copper overexposure in the related art. The results of examining the hatching rate were illustrated in FIG. 9.

[4] = system: wild-type zebrafish fertilized eggs; assay: Developmental toxicity analysis of multi-copper oxidase-derived peptides (number of surviving subjects, viability)
Protocol: The developmental toxicity of CP001 (SEQ ID NO: 3) and CP002 (SEQ ID NO: 4), which were multi-copper oxidase-derived peptides, was analyzed. Specifically, fertilized eggs were obtained by mating wild-type zebrafish. After the obtained fertilized eggs were maintained in an incubator for 24 hours, 7 subjects were dispensed into each well of a 24-well plate. The dispensed subjects were treated with CP001 and CP002 at various concentrations (10, 50, and 100 μM). After treatment with the CP001 and CP002, the number of surviving subjects at 2, 6, 22, and 36 hours was confirmed using a microscope, and the viability was calculated based on the results. The control group of the experiment was treated with 0.1% DMSO. The result of confirming the number of surviving subjects was illustrated in FIG. 5A and the calculation result of the viability was illustrated in FIG. 5B.
The experiment was performed in the same method as described above, and the treatment concentrations of CP001 and CP002 were as follows. • CP001: 1 μM, 4 μM • CP002: 5 μM, 10 μM

[5] = system: wild-type zebrafish embryos; assay: Abnormal blood deposition in tissue by hematological staining after ceruloplasmin mRNA injection; details: 180 pg or 350 pg mRNA injected into embryos at 1 to 4 cell stages; 48 hours after injection; compared to normal group
Protocol: Specifically, the ceruloplasmin gene (SEQ ID NO: 1) derived from Octopus minor obtained in Example 1 was treated with restriction enzymes Cla 1 and Xho 1, and inserted into a pCS2+ expression vector. A restriction enzyme Sac II was treated to the pCS2+ expression vector into which the ceruloplasmin gene was inserted, to prepare linear DNA. An mRNA using the linear DNA as a template was synthesized by an in vitro transcription (Sp6, Invitrogen) method.
After obtaining fertilized eggs by mating wild-type zebrafish, embryos at 1 to 4 cell stages were arranged on an injection plate. After loading the synthesized ceruloplasmin mRNA in a microglass tube with a microloder tip, a predetermined concentration (180 pg or 350 pg) thereof was injected into the embryo using a microinjector, a picopump, and a microscope. Subjects injected with the ceruloplasmin mRNA were cultured in an incubator, and after 48 hours of injection, dark-treated with a hematological staining reagent (o-dianisidine (0.6 mg/ml), 0.01 M sodium acetate (pH 4.5), 0.65% H2O2, 40% ethanol) for 30 minutes, and then washed. After washing, a fixing solution (4% paraformaldehyde) was treated to the subject injected with the ceruloplasmin mRNA, and reacted for at least 1 hour. The subjects injected with the immobilized ceruloplasmin mRNA were placed in 80% glycerol/20% PBS, and photographed under a stereoscopic microscope. […]

[6] = copper overexposure, 5.5 days after fertilization, concentration not given
[7] = 5 μM, 48 hours after fertilization
[8] = 5 μM, 52 hours after fertilization
[9] = 10 μM, 48 hours after fertilization
[10] = 10 μM, 52 hours after fertilization
[11] = 10 μM, 72 hours after fertilization
[12] = 10 μM, 80 hours after fertilization

| Molecule | subjects expressing the fluorescent protein (cranial ganglia) [1] | heart rate [2, 6] | hatching rate [3, 7] | hatching rate [3, 8] | hatching rate [3, 9] | hatching rate [3, 10] | hatching rate [3, 11] | hatching rate [3, 12] | also measured |
| --- | --- | --- | --- | --- | --- | --- | --- | --- | --- |
| NCCNCCNCCN [TETA, Trientine] | 80% | 148 beats per minute | 12.5% | 75% | 30.7% | 84.6% | 92.3% | 100% | heart rate increase compared to the control group (heart rate inhibition rate) [2, 6]: 3.5%; hatching rate ([3]; 5 μM, 56 hours after fertilization): 100% |
| GKWLLHCHVDDHIIGGMSAIY [CP002] | – | 132 beats per minute | – | – | – | – | – | – | heart rate decrease compared to the normal group (heart rate inhibition rate) ([2]; zebrafish, in vivo): 7.7%; developmental toxicity ([4]; 10 μM, surviving subjects at 2, 6, 22, 36 hours): developmental toxicity was not shown; developmental toxicity (number of surviving subjects and viability) ([4]; 5 or 10 μM): there was no developmental toxicity; developmental toxicity ([4]; 50 to 100 μM, surviving subjects at 2, 6, 22, 36 hours): developmental toxicity was confirmed |
| GSWLVKCHVHDHYVGGMETLL [CP001] | – | – | – | – | – | – | – | – | developmental toxicity ([4]; 5 μM): developmental toxicity was not confirmed; developmental toxicity (number of surviving subjects and viability) ([4]; 1 or 4 μM): there was no developmental toxicity; developmental toxicity ([4]; 10 to 100 μM, surviving subjects at 2, 6, 22, 36 hours): developmental toxicity was confirmed |
| HCHVDDHIIGGM [CP002S] | – | – | 10% | 20% | 80% | 100% | – | – | subjects with fluorescent protein expression in the cranial ganglia ([1]; 10 μM with copper): all subjects; heart rate ([2]; 10 μM, copper overexposure, 5.5 days after fertilization): 135 beats per minute; hatching rate ([3]; 5 μM, 72 hours after fertilization): 100% |
| CC(C)(S)[C@@H](N)C(=O)O [DPA, D-Penicillamine] | 100% | – | – | – | – | – | 36.3% | 81.8% | hatching rate ([3]; 5 μM, 80 hours after fertilization): 45.4% |
| ceruloplasmin mRNA: mRNA synthesized by in vitro transcription from the Octopus minor ceruloplasmin gene (SEQ ID NO: 1) | – | – | – | – | – | – | – | – | blood deposition in tissue (o-dianisidine hematological staining) [5]: abnormal blood deposition in tissue was observed |
